Measured values as given in publication PMC6271731, “Multitarget Molecular Hybrids of Cinnamic Acids” (Molecules, 2014).

Test: TLC screening for free radical scavengers (DPPH)
Conditions: plates sprayed with 0.1 mM DPPH ethanolic solution
Description: TLC was used for screening the synthesized hybrids as radical scavengers. The compound solutions in DMSO were spotted onto a silica gel F254 precoated plate and developed using […] and 95% CHCl3 as developing solvents. After development the plates were air-dried and sprayed with 0.1 mM DPPH ethanolic solution for detecting the compounds with rapid scavenging properties.

With `CC(Cc1ccc(O)c(O)c1)C(C)Cc1ccc(O)c(O)c1` (stereo not shown) [NDGA, nordihydroguaiaretic acid] the “scavenging of DPPH (visual, TLC)” value was “white spots on a purple background”.
